For orientation: pIC50 means the negative decadic logarithm of the IC50, by convention in mol/L. A high value points to a low IC50.

pIC50: −log10 of the molar value.

Assay [1] in a line: Antiproliferative effects against human SHEP cells after 72 hrs by Alamar blue assay.
The subject of a further assay is MRC5. The experiment in a line: Antiproliferative effects against human MRC5 cells after 72 hrs by Alamar blue assay. The note with it: MRC5, 72 h. For orientation: The colour change of resazurin is a common sign of viable cells or microbes.

As for `CC(C)N1COc2cc3c(cc2C1)C=C(c1ccc(O)cc1)CO3`, the pIC50 in assay [1] was 4.91.

For `Oc1ccc(C2=Cc3cc(CN4CCOCC4)c(O)cc3OC2)cc1`, the pIC50 in assay [1] was 4.06. Against the preceding compound, the pIC50 is 0.85 log units lower.

For `Oc1ccc(C2=COc3cc(O)c(CNCCc4ccccc4)cc3C2)cc1`, the pIC50 in the assay on MRC5 is 4.44; in assay [1], 5.74.

On to `CCCCNCc1cc2c(cc1O)OC=C(c1ccc(O)cc1)C2`, for which the results for the pIC50 (in the assay on MRC5; in assay [1]) were 4.47 and 5.40, respectively.

As to `CCN(CC)Cc1cc(C2=Cc3cc(CN(CC)CC)c(O)cc3OC2)ccc1O`, the pIC50 in the assay with MRC5 is 4.67; in assay [1] it was 5.47.

`Oc1ccc(C2=COc3cc(O)c(CNCc4ccccc4)cc3C2)cc1`: the pIC50 in the assay with MRC5 was 4.39; in assay [1] it was 5.24.

In assay [1], `Oc1ccc(C2=Cc3cc(CN4CCOCC4)c(O)cc3OC2)cc1CN1CCOCC1` gave a pIC50 of 3.77.

In assay [1], `CN1COc2cc3c(cc2C1)C=C(c1ccc(O)cc1)CO3` showed a pIC50 of 5.18. Compared with the last compound, the pIC50 is 1.41 log units higher.

On to `CCCCCCCN1COc2cc3c(cc2C1)C=C(c1ccc(O)cc1)CO3`, for which the pIC50 in the assay on MRC5 is 4.92; in assay [1] it was 5.85.

`CCN(CC)Cc1cc2c(cc1O)OCC(c1ccc(O)cc1)=C2` had a pIC50 in assay [1] of 4.45.

As for `CCCCCCCNCc1cc2c(cc1O)OC=C(c1ccc(O)cc1)C2`, the pIC50 with MRC5 is 4.80; in assay [1] it was 5.55.

For `Oc1ccc(C2=Cc3cc4c(cc3OC2)OCN(Cc2ccccc2)C4)cc1`, the pIC50 in assay [1] is 5.24.

With `Oc1ccc(C2=Cc3cc4c(cc3OC2)OCN(CCc2ccccc2)C4)cc1`, the pIC50 with MRC5 was 3.71; in assay [1], 6.15.

`Oc1ccc(C2=Cc3cc(CN4CCCCC4)c(O)cc3OC2)cc1CN1CCCCC1` gave a pIC50 in assay [1] of 5.38.

In assay [1], `Oc1ccc(C2=Cc3cc(CN4CCCCC4)c(O)cc3OC2)cc1` showed a pIC50 of 4.70.

With `CCCCN1COc2cc3c(cc2C1)C=C(c1ccc(O)cc1)CO3`, the pIC50 was 4.47 in the assay on MRC5 and 5.41 in assay [1].

`CCCCOCCCNCc1cc2c(cc1O)OC=C(c1ccc(O)cc1)C2` gave a pIC50 in assay [1] of 5.29.

On to `C=CCN1COc2cc3c(cc2C1)C=C(c1ccc(O)cc1)CO3`, for which, in assay [1], the pIC50 was 5.04.

On to `OCCNCc1cc2c(cc1O)OC=C(c1ccc(O)cc1)C2`, for which the negative logarithm of the IC50 (pIC50) in assay [1] is 4.56.

The compound `CC(C)NCc1cc2c(cc1O)OC=C(c1ccc(O)cc1)C2` gave a pIC50 in assay [1] of 4.82.

Turning to `Oc1ccc(C2=COc3cc(O)ccc3C2)cc1` [ISOPHENOXODIOL], the pIC50 in the assay with MRC5 was 3.96; in assay [1], 5.08.

Consider `CN(C)Cc1cc2c(cc1O)OC=C(c1ccc(O)cc1)C2`, for which the pIC50 in assay [1] was 5.24.

In the case of `OCCN1COc2cc3c(cc2C1)C=C(c1ccc(O)cc1)CO3`, in assay [1], the pIC50 was 4.61.

Compound `Oc1ccc(C2=Cc3cc(CN4CCOCC4)c(O)c(CN4CCOCC4)c3OC2)cc1CN1CCOCC1` showed a pIC50 in assay [1] of 4.16.

In assay [1], `C1=C(c2ccc3c(c2)CN(Cc2ccccc2)CO3)COc2cc3c(cc21)CN(Cc1ccccc1)CO3` gave a pIC50 of 5.43. Compared with the last compound, the pIC50 is 1.27 log units higher.

These data come from ChEMBL document CHEMBL3632474, “Synthesis, biological evaluation and structure-activity relationship studies of isoflavene based Mannich bases with potent anti-cancer activity” (Bioorg Med Chem Lett, 2015).
